Laboratory results taken from paper PMC3009975, “Blocking spinal CCR2 with AZ889 reversed hyperalgesia in a model of neuropathic pain” (Molecular Pain, 2010).
“Also recorded” adds a separate entry of the source. Like-named read-outs stand apart in the source and are kept apart here.

Key:
rat CCR2 receptor = molecular target: T1, rat CCR2 receptor (Rattus norvegicus, UniProt O55193); assay: Calcium flux assay (FLIPR) in HEK293 s cells (Gαqi5) stably expressing rat CCR2; type: cell-based; conditions: read-out: EC50, calcium activation of HEK293 s cells expressing CCR2
T1 construct: expressed in transfected cells; host or cells: HEK293s cells co-expressing chimeric Gαqi5
T1 sequence (O55193 1-373): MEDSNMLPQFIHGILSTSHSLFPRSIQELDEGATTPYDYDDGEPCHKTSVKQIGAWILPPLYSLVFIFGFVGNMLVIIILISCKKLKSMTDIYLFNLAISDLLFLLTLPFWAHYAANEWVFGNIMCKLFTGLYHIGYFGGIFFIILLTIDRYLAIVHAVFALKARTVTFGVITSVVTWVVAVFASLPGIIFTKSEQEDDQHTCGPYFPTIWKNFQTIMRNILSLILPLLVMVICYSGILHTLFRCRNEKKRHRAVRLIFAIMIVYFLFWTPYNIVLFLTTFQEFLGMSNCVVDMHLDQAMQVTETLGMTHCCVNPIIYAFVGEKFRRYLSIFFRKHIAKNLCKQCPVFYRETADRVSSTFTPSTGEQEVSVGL
Description: Chemokine receptors are known to modulate intracellular calcium concentration. A library of designed molecules was screened on HEK cells expressing the receptor using a calcium flux-assay (FLIPR). Compounds capable of blocking the intracellular calcium rise evoked by mouse CCL2 in HEK293 s cells (Gαqi5) stably expressing the rat CCR2 receptor were selected and further profiled by performing dose-response curves. Mouse and rat CCL2 (mCCL2 and rCCL2) purchased from R&D Systems gave similar median effective concentrations (EC50) values (Additional file 1 Figure S1) and mCCL2 was selected to conduct the screening assay. Cells were pre-incubated (30 min) with a given concentration of compound (from 0.04 to 1 μM) and CCR2 calcium-mediated activation was evoked by the addition of mCCL2 (EC50 concentration, 1 nM).
Briefly, HEK293 s cells stably expressing rat CCR2 and the chimeric Gαqi5 were plated (15000 cells per well) in 384-well assay plates in Dulbecco's modified Eagle's medium (DMEM) for 24 h in a humidified atmosphere at 37°C in 5% CO2. After removing the medium by inversion, cells were loaded with the calcium-sensitive dye Fluo4-AM (Molecular Devices), 15 μL per well of 4 μM FLUO-4/Pluronic acid mix (1 mM) in buffer and incubated at 37°C for 1 h in a humidified chamber (5% CO2/95% air). Cells were washed 4 times in Hanks' balanced salt solution buffer supplemented with 20 mM HEPES + 0.25% bovine serum albumin at pH 7.4. Different concentrations of the test compound (from 10 mM stock in dimethyl sulfoxide) were added in buffer for 30 min at 37°C in 5% CO2. In this assay, mouse CCL2 was added at 1 nM in buffer (EC50 value in Figure 1) and mobilization of intracellular calcium was measured online (FLIPR, Molecular Devices). The EC50 and IC50 values were determined using 8-point concentration-response curve using non-linear regression and a four-parameter logistic model (Prism 4.03 software, GraphPad Software Inc).

[1] = test system: non-neuronal cells in spinal cord slices from CCI rats; assay: Calcium imaging of non-neuronal cells in spinal cord slices from CCI rats; type: cell-based, rat; conditions: bath application of 50 nM CCL2; n = 4
Description: (§1) To evaluate this we used spinal cord slices from CCI rats and evaluated if neuronal and non-neuronal cell types were sensitive to CCL2. For these recordings, calcium imaging acquisition was focused on lamina I of the dorsal horn. […] In this region, non-neuronal cells included astrocytes, microglia and other types of glial cells.
(§2) Spinal cord slices from L4 to L6 region were prepared from CCI animals, 4 to 19 days post-surgery, following guidelines by Wan and colleagues. In order to prevent excess bleeding, 20 uL of Xylocaine was injected intramuscularly at several sites on both sides of the spinal cord. Under deep anaesthesia a laminectomy (T11 to L5) was performed. Once exposed, the spinal cord was isolated and submerged in oxygenated ice-cold solution containing (in mM): 250 sucrose, 5 KCl, 2 MgSO4, 1.25 NaH2PO4, 26 NaHCO3 and 10 glucose.

[2] = test system: neuronal cells in spinal cord slices from CCI rats; assay: Calcium imaging of neurons in spinal cord slices from CCI rats; type: cell-based, rat; conditions: bath application of 50 nM CCL2; n = 5
Description: as §1, §2

[3] = test system: DRG cells harvested from naive rats; assay: Calcium imaging of DRG cells harvested from naive rats; type: cell-based, rat; conditions: data not shown
Description: An increased number of action potentials in DRG neurons following CCR2 activation is an intriguing observation since CCR2 is a pertussis toxin (PTX)-sensitive GPCR coupled to inhibitory Gi and/or […]. Additionally, CCR2 activation evokes excitatory Ca^2+ rises in DRG cells but the underlying mechanism is still poorly understood. To gain further insight into CCR2-mediated Ca^2+ mobilization, we next evaluated the sensitivity of both neuronal and non-neuronal cell types in the DRG by recording changes in intracellular calcium evoked by CCL2. […] In mixed-cell cultures from CCI rats, CCL2 evoked an intracellular calcium rise in both neuronal and non-neuronal DRG cells (Figure 3A-C). Non-neuronal cells, satellite cells or microglia, were easily distinguished from neurons by their size, morphology and absence of dendritic processes (Figure 3A).
Cells and spinal cord slices were loaded with Fluo4-AM (4 μM, 30 min) in an oxygenated chamber (5% CO2/95% O2). DRG cells and spinal cord slices were washed in PBS and ACSF respectively and placed in a chamber mounted on the stage of a fluorescent microscope (Olympus). […] For each time-lapse image, the fluorescence intensity (F) was averaged over the soma area. Changes in fluorescence (ΔF) were measured as relative changes from baseline fluorescence (F0) and expressed as: […]

[4] = test system: DRG neurons from CCI rats; assay: Whole-cell patch clamp, evoked action potential firing in DRG neurons from CCI rats; type: cell-based, rat
Description: To assess whether DRG neurons from rats with chronic constriction injury (CCI) were also CCL2-sensitive, we performed whole-cell patch clamp recordings to evaluate the effect of the chemokine on cell excitability. A suprathreshold (500 ms) depolarizing current step was used to evoke a stable baseline of action potentials (Figure 2A) in the absence or presence of locally applied CCL2 (1min) onto the recorded cell.
Ganglia from L4 to L6 dorsal roots were harvested from CCI animals, 4 to 19 days post-surgery. The tissue was enzymatically digested at 37°C for 90 min with collagenase-A (2 mg/mL) and papain (1 mg/mL) in DMEM. […]
DRG cells maintained for 1-3 days in culture were transferred to a recording chamber fixed to the stage of an inverted microscope (Olympus) and constantly perfused (0.5 mL/min) with Dulbecco's phosphate buffered saline (PBS), a standard extracellular bathing solution containing (in mM): 137 NaCl; 8.1 Na2HPO4•7H2O; 2.68 KCl; 1.47 KH2PO4; 0.9 CaCl2; 0.5 MgCl2•6H2O at pH 7 and 275 to 290 mOsm. […] Signals were filtered at 1 kHz, digitized at 10 kHz (Digidata, Molecular Devices) and captured and analyzed off-line (Pclamp9 software, Molecular Devices). Action potentials were recorded with borosilicate glass patch pipettes (2-6 MΩ) filled with solution containing (in mM): 110 K-gluconate, 20 KCl, 10 EGTA, 8 NaCl, 10 HEPES, 1 MgCl2 and 4 Mg-ATP at pH 7.3. […]

rats = assay: Side effects during behavioural studies (locomotor activity assay, muscle tone, overt signs); type: in vivo, rat; conditions: highest dose (pregabalin 100 mg/kg p.o.); data not shown
CCI rats = assay: Thermal (heat) hyperalgesia (paw withdrawal latency) in CCI neuropathic rats; type: in vivo, rat; conditions: p.o., tested 1 h after dosing
Description: Chronic nerve constriction injury (CCI) was induced as described previously [38] in male Sprague-Dawley rats weighing 125-150 g at the time of surgery. Briefly, under isoflurane anaesthesia, a small incision was made 0.5 cm below the pelvis, and the biceps femoris and the gluteus superficialis (left side) were separated. The sciatic nerve was exposed, isolated, and four loose ligatures (4-0 chromic gut) with 1 mm spacing were placed around it. The nerve was placed back in its natural position and the incision sealed with tissue adhesive (VetbondTM). The animals were allowed to recover for 7-10 days before conducting any behavioural testing. Animals that were not gaining weight or were showing clinical signs of distress (e.g. paralysis, self-mutilation, extensive alopecia) were not included in this study.
Animals were brought to the laboratory 24 h prior to behavioural testing for acclimatization. […] Paw withdrawal latencies were calculated as the mean of two trials conducted with 5 min intervals between measures.
CCI rats and their corresponding naïve controls were used throughout this study. […] In order to assess behavioural pathology, baseline hyperalgesia was determined 1-2 days before pharmacological testing. […] The percentage of anti-hyperalgesia for each rat was calculated according to the following equation: % anti-hyperalgesia = [(value-vehicle)/(naïve-vehicle)]*100.

[5] = test system: DRG neurons from CCI rats; assay: Calcium imaging of cultured DRG neurons from CCI rats; type: cell-based, rat; conditions: 1 μM, before (5 min), during and after 100 nM CCL2; n = 6 cells
Description: Since rCCL2 can activate both CCR2 and CCR5 [25] we used AZ889 to test if a selective CCR2 antagonist can prevent CCL2-induced calcium signalling in native tissue.
Ganglia from L4 to L6 dorsal roots were harvested from CCI animals, 4 to 19 days post-surgery. The tissue was enzymatically digested at 37°C for 90 min with collagenase-A (2 mg/mL) and papain (1 mg/mL) in DMEM. Cells were plated on Poly-D-Lysine coated coverslips and maintained in F12 supplemented with 10% heat inactivated horse serum, 2 mM glutamine-penicillin-streptomycin, and 2 ng/ml NGF and GDNF for 1-3 days in a humidified chamber (5% CO2/95% O2).

[6] = Additional file 1 Figure S1, average of 3 independent experiments

Compound: rCCL2: rat CC chemokine ligand 2 (monocyte chemoattractant protein-1), CCR2 agonist, purchased from R&D Systems
- EC50 (rat CCR2 receptor; [6]): 0.8 nM
- calcium response in non-neuronal cells [1]: 57.8 ± 42.3%
- mean calcium rise peak in neurons [2]: 142.5 ± 87.8%
- calcium response in DRG cells from naive rats [3]: did not evoke any response
- increase in evoked firing compared to vehicle ([4]; CCL2 10 nM, local application 1 min, n = 3): 29 ± 9%
- increase in evoked firing (facilitated neuronal firing) ([4]; rCCL2 100 nM, n = 6): 46 ± 13%

Compound: CC(C)C[C@H](CN)CC(=O)O [Pregabalin]
- muscle tone (rats): clear decrease in muscle tone
- potency in reducing heat hyperalgesia, fold lower than AZ889 (CCI rats): 10 fold

Compound: COc1ccc2c(c1)CC[C@@H]1[C@@H]2CC[C@]2(C)[C@@H](NCCCCCCN3C(=O)C=CC3=O)CC[C@@H]12 [U73122]
- effect on CCL2-evoked calcium mobilization in DRG neurons [5]: significant block of the calcium rise peak; also recorded: significantly blocked

Compound: mCCL2: mouse CC chemokine ligand 2 (monocyte chemoattractant protein-1), CCR2 agonist, purchased from R&D Systems
- EC50 (rat CCR2 receptor; [6]): 0.5 nM
- EC50 (rat CCR2 receptor; Figure 1A): 1 nM
